Literature values in patent US20160303177A1, “NUTRITIONAL SUPPLEMENT” (priority 2015, published 2016).

Assays:
[1] = 600 mg prior to exercise
[2] = 400 mg at three times per day
[3] = training in set of 8-15 repetitions
[4] = washout period
[5] = 300 mg per day
[6] = 17.25 grams per day, cyclists
[7] = 5 grams at three times a day along with other medications
[8] = given before animals were cardiac stressed
[9] = 300 mgs of EGCG
[10] = two grams of L-Carnitine with 80 mg of carbohydrates
[11] = 1500 mg per day for 6 weeks, mild to moderate erectile dysfunction
[12] = diseased hearts, 3 grams a day
[13] = 6 grams
[14] = 8 grams of L-Citrulline with 10 grams of carbohydrate
[15] = 500 milligrams of nitrate, runners
[16] = healthy individuals
[17] = 11.2 mmol/kg of nitrate

## C[N+](C)(C)CCOP(=O)([O-])OC[C@H](O)CO [Alpha GPC, Alpha Glycerylphosphorylcholine]
[1]
  peak increase in peak force production during resistance exercise: 14%
[2]
  cognition in mild to moderate Alzheimer's dementia: cognitive improvement

## NCCC(=O)O [Beta-Alanine]
[3]
  additional reps in the gym: one to two additional reps
[4]
  time after supplementation still in the muscles at higher levels: 8 weeks

## COC1=C(OC)C(=O)C(C/C=C(\C)CC/C=C(\C)CC/C=C(\C)CC/C=C(\C)CC/C=C(\C)CC/C=C(\C)CC/C=C(\C)CC/C=C(\C)CC/C=C(\C)CCC=C(C)C)=C(C)C1=O [CoQ 10, Coenzyme Q10]
[5]
  fatigue during exertion: reduce fatigue during the late portions of exertion
In vivo
  half-life: 5.8 to 8.10 h
Supplementation with 90-120 mg
  increase in CoQ10 concentrations: 50-150%

## O=C[C@H](O)[C@H](O)[C@H](O)CO [D-Ribose]
[6]
  rates of ATP production: increased the rates of ATP production back to pre-exercise levels
[7]
  fibromyalgia symptoms: marked decrease in symptoms
[8]
  held out longer before ischemia compared to placebo: 25%

## O=C(O[C@@H]1Cc2c(O)cc(O)cc2O[C@@H]1c1cc(O)c(O)c(O)c1)c1cc(O)c(O)c(O)c1 [EGCG, epigallocatechin gallate]
[9]
  source of energy when taken with a meal: a greater proportion of energy comes from dietary fat rather than carbohydrate

## C[N+](C)(C)C[C@H](O)CC(=O)[O-] [L-Carnitine]
[10]
  fat burning: increased fat burning
  increase in muscle carnitine content: 21%

## NC(=O)NCCC[C@H](N)C(=O)O [L-Citrulline]
[11]
  men with increase in erection hardness: 50%
[12]
  blood pressure: decrease in blood pressure
  exercise abilities: increase in exercise abilities
  right ventricular ejection fraction: increase in right ventricular ejection fraction
[13]
  ATP production: increased ATP production
  ammonia production: reduced ammonia production
  muscle protein synthesis: increased muscle protein synthesis
  reduction of creatine depletion: 28%
[14]
  delay in fatigue: statistically significant delay in fatigue

## O=[N+]([O-])O [nitrate]
[15]
  improvement of 5K time: 41 s
[16]; 0.1 mmol/kg of nitrate
  reduced VO2 (oxygen consumption): 5.4%
[16]; 6.2 mmol/kg of nitrate
  increase in time to fatigue: 15%
[16]
  increase in energy efficiency: 7.1%
[17]
  reduction of oxygen muscle extraction: 19%
